From US20250302832A1, “PYRAZINE DERIVATIVES AND USES THEREOF” (FOGHORN THERAPEUTICS INC., priority 2022, published 2025)

What was measured:
HiBit-BRM fusion protein = molecular target: T1, HiBit-BRM fusion protein (Homo sapiens, UniProt P51531); assay: HiBiT-BRM cell-based degradation assay (Nano-Glo HiBiT lytic detection, 24 h); conditions: HeLa cell line expressing HiBiT-BRM; for DC50: read-out: BRM HiBit Degradation IC50
T1 construct: expressed in transfected cells
Outline: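 Stable HeLa HiBiT-BRM cells treated 24 h with compounds (10-point 3-fold dilutions, 30 μM final top dose, duplicate). HiBiT levels read by Nano-Glo lytic luminescence; % degradation normalised to DMSO (high control) and 2 μM reference BRM/BRG1 degrader (low control).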

[1] = molecular target: T2, HiBit-BRG1 fusion protein (Homo sapiens, UniProt P51532); assay: HiBiT-BRG1 cell-based degradation assay (Nano-Glo HiBiT lytic detection, 24 h); conditions: HeLa cell line expressing HiBit-BRG1 and LgBit; for Dmax: read-out: BRG1 HiBit Degradation Maximum (%); for DC50: read-out: BRMG1 HiBit Degradation IC50
T2 construct: expressed in transfected cells
Outline: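 HeLa cells stably expressing HiBiT-BRG1 and LgBiT, 5000 per well, compound-treated 24 h, equilibrated 15 min at room temperature, then lysed with LgBiT-containing Nano-Glo HiBiT lytic reagent and luminescence read. % degradation normalised between DMSO (high control) and 2 μM reference BRM/BRG1 degrader (low control).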

T2 sequence (P51532 whole entry, the tested form may be a part): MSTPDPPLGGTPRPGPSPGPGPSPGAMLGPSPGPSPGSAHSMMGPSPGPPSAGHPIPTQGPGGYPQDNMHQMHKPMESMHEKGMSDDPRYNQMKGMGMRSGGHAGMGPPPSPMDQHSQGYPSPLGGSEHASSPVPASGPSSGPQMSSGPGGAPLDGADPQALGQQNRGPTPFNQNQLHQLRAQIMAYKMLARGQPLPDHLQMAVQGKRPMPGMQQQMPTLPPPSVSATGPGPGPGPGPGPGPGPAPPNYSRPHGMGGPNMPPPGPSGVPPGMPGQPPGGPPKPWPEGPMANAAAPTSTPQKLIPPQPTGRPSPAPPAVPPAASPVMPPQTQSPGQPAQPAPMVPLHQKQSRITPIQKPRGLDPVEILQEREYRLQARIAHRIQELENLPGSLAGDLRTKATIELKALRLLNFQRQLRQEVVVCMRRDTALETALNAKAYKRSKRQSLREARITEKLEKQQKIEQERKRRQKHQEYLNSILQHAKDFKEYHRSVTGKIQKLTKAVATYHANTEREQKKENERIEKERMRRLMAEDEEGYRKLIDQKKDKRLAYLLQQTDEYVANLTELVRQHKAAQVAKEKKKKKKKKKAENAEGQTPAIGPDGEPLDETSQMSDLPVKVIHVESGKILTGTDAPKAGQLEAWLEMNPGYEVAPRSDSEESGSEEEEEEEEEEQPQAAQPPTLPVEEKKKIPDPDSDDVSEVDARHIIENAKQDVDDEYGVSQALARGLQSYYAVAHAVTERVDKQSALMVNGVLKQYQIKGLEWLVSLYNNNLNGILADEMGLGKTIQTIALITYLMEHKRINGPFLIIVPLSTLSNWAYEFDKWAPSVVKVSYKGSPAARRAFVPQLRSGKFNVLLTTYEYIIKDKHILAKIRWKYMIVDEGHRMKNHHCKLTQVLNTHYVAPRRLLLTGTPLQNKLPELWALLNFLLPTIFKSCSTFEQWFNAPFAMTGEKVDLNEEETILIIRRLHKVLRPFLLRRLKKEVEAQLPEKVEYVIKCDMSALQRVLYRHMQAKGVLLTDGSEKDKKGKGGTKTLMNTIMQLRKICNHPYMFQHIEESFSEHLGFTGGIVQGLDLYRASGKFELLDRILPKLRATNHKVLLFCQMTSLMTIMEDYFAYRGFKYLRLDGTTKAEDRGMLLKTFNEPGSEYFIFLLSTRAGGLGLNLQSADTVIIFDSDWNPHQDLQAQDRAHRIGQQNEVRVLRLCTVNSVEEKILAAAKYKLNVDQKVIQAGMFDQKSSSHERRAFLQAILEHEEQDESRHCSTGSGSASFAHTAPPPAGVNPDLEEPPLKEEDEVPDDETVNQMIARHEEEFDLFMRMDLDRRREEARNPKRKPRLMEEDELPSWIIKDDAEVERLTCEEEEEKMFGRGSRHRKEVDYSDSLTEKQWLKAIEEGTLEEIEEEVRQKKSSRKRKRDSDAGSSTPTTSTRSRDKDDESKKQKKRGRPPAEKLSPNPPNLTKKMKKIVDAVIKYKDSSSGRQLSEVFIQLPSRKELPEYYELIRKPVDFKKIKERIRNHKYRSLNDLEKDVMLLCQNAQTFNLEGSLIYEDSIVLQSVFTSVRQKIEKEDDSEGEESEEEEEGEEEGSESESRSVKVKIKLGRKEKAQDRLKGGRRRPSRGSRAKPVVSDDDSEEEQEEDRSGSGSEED
T1 sequence (P51531 whole entry, the tested form may be a part): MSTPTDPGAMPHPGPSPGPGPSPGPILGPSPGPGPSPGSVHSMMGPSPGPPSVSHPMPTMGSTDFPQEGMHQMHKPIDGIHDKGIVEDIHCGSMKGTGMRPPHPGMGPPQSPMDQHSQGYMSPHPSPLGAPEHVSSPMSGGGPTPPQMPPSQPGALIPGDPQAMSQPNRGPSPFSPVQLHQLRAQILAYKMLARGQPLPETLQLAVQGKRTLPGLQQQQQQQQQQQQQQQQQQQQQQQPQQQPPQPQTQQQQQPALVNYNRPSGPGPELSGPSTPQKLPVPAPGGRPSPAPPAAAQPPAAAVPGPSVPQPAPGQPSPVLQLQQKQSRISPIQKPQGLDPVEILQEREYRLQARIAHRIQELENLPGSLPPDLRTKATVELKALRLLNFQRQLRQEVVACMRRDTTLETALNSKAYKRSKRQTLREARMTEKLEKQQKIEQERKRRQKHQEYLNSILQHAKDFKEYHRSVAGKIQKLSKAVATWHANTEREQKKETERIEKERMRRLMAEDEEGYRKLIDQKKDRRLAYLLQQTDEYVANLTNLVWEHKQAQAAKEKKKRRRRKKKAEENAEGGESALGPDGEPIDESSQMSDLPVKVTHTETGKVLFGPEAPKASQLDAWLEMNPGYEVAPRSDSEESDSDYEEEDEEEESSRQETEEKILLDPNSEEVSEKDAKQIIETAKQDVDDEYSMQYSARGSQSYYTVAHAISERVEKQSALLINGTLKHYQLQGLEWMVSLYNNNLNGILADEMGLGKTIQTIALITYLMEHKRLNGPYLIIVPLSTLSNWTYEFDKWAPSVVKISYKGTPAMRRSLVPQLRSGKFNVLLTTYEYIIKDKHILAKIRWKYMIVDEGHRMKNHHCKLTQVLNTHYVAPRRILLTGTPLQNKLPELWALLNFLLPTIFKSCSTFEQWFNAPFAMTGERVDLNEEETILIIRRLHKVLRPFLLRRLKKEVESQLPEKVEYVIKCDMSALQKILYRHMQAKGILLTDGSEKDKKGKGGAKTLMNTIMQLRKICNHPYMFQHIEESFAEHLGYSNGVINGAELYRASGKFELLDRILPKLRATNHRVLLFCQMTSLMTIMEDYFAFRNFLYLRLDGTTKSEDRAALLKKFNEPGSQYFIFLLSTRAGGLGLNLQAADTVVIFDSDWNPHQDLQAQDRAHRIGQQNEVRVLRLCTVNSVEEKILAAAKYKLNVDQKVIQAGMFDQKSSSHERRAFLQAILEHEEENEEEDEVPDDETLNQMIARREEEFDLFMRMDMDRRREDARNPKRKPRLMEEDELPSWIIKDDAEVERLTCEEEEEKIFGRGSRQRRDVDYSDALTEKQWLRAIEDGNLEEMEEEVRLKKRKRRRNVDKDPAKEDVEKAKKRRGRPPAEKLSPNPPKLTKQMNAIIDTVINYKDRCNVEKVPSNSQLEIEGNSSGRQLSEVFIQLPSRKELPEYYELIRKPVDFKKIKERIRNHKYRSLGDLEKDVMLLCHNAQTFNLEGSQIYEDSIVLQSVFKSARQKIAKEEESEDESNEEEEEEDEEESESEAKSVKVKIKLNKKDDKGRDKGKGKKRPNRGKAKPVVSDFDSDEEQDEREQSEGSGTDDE

DC50 (HiBit-BRM fusion protein) | Dmax [1] | DC50 [1] | Compound | BRM HiBit Degradation Maximum (%) (HiBit-BRM fusion protein)
< 10 nM | < 50% |  | Cc1ncsc1-c1ccc([C@H](C)NC(=O)[C@@H]2C[C@@H](O)CN2C(=O)[C@@H](c2cc(N3CC4(CC(c5cc6nnc(-c7ccccc7O)cc6n5CC5CC5)C4)C3)no2)C(C)C)cc1 [Compound 77, (2S,4R)-1-((R)-2-(3-(6-(5-(cyclopropylmethyl)-3-(2-hydroxyphenyl)-5H-pyrrolo[3,2-c]pyridazin-6-yl)-2-azaspiro[3.3]heptan-2-yl)isoxazol-5-yl)-3-methylbutanoyl)-4-hydroxy-N-((S)-1-(4-(4-methylthiazol-5-yl)phenyl)ethyl)pyrrolidine-2-carboxamide] | A (“A” indicates maximum degradation ≥75%)
< 10 nM | < 50% |  | Cc1ncsc1-c1ccc([C@H](C)NC(=O)[C@@H]2C[C@@H](O)CN2C(=O)[C@@H](c2cc(N3CC4(CC(c5cc6nnc(-c7ccccc7O)cc6n5C5CC5)C4)C3)no2)C(C)C)cc1 [Compound 78, (2S,4R)-1-((R)-2-(3-(6-(5-cyclopropyl-3-(2-hydroxyphenyl)-5H-pyrrolo[3,2-c]pyridazin-6-yl)-2-azaspiro[3.3]heptan-2-yl)isoxazol-5-yl)-3-methylbutanoyl)-4-hydroxy-N-((S)-1-(4-(4-methylthiazol-5-yl)phenyl)ethyl)pyrrolidine-2-carboxamide] | A (“A” indicates maximum degradation ≥75%)
> 10 nM | < 50% |  | Cc1ncsc1-c1ccc([C@H](C)NC(=O)[C@@H]2C[C@@H](O)CN2C(=O)[C@@H](c2cc(N3CC[C@H](c4cc5nnc(-c6ccccc6O)cc5n4C4CCC4)C3)no2)C(C)C)cc1 [Compound 79, (2S,4R)-1-((R)-2-(3-((S)-3-(5-cyclobutyl-3-(2-hydroxyphenyl)-5H-pyrrolo[3,2-c]pyridazin-6-yl)pyrrolidin-1-yl)isoxazol-5-yl)-3-methylbutanoyl)-4-hydroxy-N-((S)-1-(4-(4-methylthiazol-5-yl)phenyl)ethyl)pyrrolidine-2-carboxamide] | A (“A” indicates maximum degradation ≥75%)
> 10 nM | > 75% | > 10 nM | Cc1ncsc1-c1ccc([C@H](C)NC(=O)[C@@H]2C[C@@H](O)CN2C(=O)[C@@H](c2cc(N3CC[C@H](c4cc5nnc(-c6ccccc6O)cc5n4C4(C)CC4)C3)no2)C(C)C)cc1 [Compound 80, (2S,4R)-4-hydroxy-1-((R)-2-(3-((S)-3-(3-(2-hydroxyphenyl)-5-(1-methylcyclopropyl)-5H-pyrrolo[3,2-c]pyridazin-6-yl)pyrrolidin-1-yl)isoxazol-5-yl)-3-methylbutanoyl)-N-((S)-1-(4-(4-methylthiazol-5-yl)phenyl)ethyl)pyrrolidine-2-carboxamide] | A (“A” indicates maximum degradation ≥75%)
< 10 nM | > 75% | < 10 nM | Cc1ncsc1-c1ccc([C@H](C)NC(=O)[C@@H]2C[C@@H](O)CN2C(=O)[C@@H](c2cc(N3CC[C@@H](c4cc5nnc(-c6ccccc6O)cc5n4C4(C)CC4)C3)no2)C(C)C)cc1 [Compound 81, (2S,4R)-4-hydroxy-1-((R)-2-(3-((R)-3-(3-(2-hydroxyphenyl)-5-(1-methylcyclopropyl)-5H-pyrrolo[3,2-c]pyridazin-6-yl)pyrrolidin-1-yl)isoxazol-5-yl)-3-methylbutanoyl)-N-((S)-1-(4-(4-methylthiazol-5-yl)phenyl)ethyl)pyrrolidine-2-carboxamide] | A (“A” indicates maximum degradation ≥75%)
< 10 nM | > 50% | > 10 nM | Cc1ncsc1-c1ccc([C@H](C)NC(=O)[C@@H]2C[C@@H](O)CN2C(=O)[C@@H](c2cc(-c3ccnc(N4CC[C@@H](c5cc6nnc(-c7ccccc7O)cc6n5C5CC5)C4)c3)no2)C(C)C)cc1 [Compound 82, (2S,4R)-1-[(2R)-2-(3-{2-[(3R)-3-[5-cyclopropyl-3-(2-hydroxyphenyl)pyrrolo [3,2-c]pyridazin-6-yl]pyrrolidin-1-yl]pyridin-4-yl}-1,2-oxazol-5-yl)-3-methylbutanoyl]-4-hydroxy-N-[(1S)-1-[4-(4-methyl-1,3-thiazol-5-yl)phenyl]ethyl]pyrrolidine-2-carboxamide] | A (“A” indicates maximum degradation ≥75%)
< 10 nM | < 50% |  | Cc1ncsc1-c1ccc(CNC(=O)[C@@H]2C[C@@H](O)CN2C(=O)[C@@H](c2cc(N3CCC4(CC3)CC(c3cc5nnc(-c6ccccc6O)cc5n3C3CC3)C4)no2)C(C)C)cc1 [Compound 84, (2S,4R)-1-((R)-2-(3-(2-(5-cyclopropyl-3-(2-hydroxyphenyl)-5H-pyrrolo[3,2-c]pyridazin-6-yl)-7-azaspiro[3.5]nonan-7-yl)isoxazol-5-yl)-3-methylbutanoyl)-4-hydroxy-N-(4-(4-methylthiazol-5-yl)benzyl)pyrrolidine-2-carboxamide] | A (“A” indicates maximum degradation ≥75%)
< 10 nM | > 75% | > 10 nM | Cc1ncsc1-c1ccc([C@H](C)NC(=O)[C@@H]2C[C@@H](O)CN2C(=O)[C@@H](c2cc(N3CCC4(CCC(c5cc6nnc(-c7ccccc7O)cc6n5C5CC5)CC4)CC3)no2)C(C)C)cc1 [Compound 85, (2S,4R)-1-((R)-2-(3-(9-(5-cyclopropyl-3-(2-hydroxyphenyl)-5H-pyrrolo[3,2-c]pyridazin-6-yl)-3-azaspiro[5.5]undecan-3-yl)isoxazol-5-yl)-3-methylbutanoyl)-4-hydroxy-N-((S)-1-(4-(4-methylthiazol-5-yl)phenyl)ethyl)pyrrolidine-2-carboxamide] | A (“A” indicates maximum degradation ≥75%)
< 10 nM | < 50% |  | Cc1ncsc1-c1ccc([C@H](C)NC(=O)[C@@H]2C[C@@H](O)CN2C(=O)[C@@H](c2cc(N3CCC4(CC3)CC(c3cc5nnc(-c6ccccc6O)cc5n3CC3CC3)C4)no2)C(C)C)cc1 [Compound 86, (2S,4R)-1-((R)-2-(3-(2-(5-(cyclopropylmethyl)-3-(2-hydroxyphenyl)-5H-pyrrolo[3,2-c]pyridazin-6-yl)-7-azaspiro[3.5]nonan-7-yl)isoxazol-5-yl)-3-methylbutanoyl)-4-hydroxy-N-((S)-1-(4-(4-methylthiazol-5-yl)phenyl)ethyl)pyrrolidine-2-carboxamide] | A (“A” indicates maximum degradation ≥75%)
< 10 nM | > 75% | < 10 nM | Cc1ncsc1-c1ccc([C@H](C)NC(=O)[C@@H]2C[C@@H](O)CN2C(=O)[C@@H](c2cc(N3CC4(CCC(c5cc6nnc(-c7ccccc7O)cc6n5C5CC5)CC4)C3)no2)C(C)C)cc1 [Compound 87, (2S,4R)-1-((R)-2-(3-(7-(5-cyclopropyl-3-(2-hydroxyphenyl)-5H-pyrrolo[3,2-c]pyridazin-6-yl)-2-azaspiro[3.5]nonan-2-yl)isoxazol-5-yl)-3-methylbutanoyl)-4-hydroxy-N-((S)-1-(4-(4-methylthiazol-5-yl)phenyl)ethyl)pyrrolidine-2-carboxamide] | A (“A” indicates maximum degradation ≥75%)
< 10 nM | > 75% | > 10 nM | Cc1ncsc1-c1ccc([C@H](C)NC(=O)[C@@H]2C[C@@H](O)CN2C(=O)[C@@H](c2cc(N3CC[C@@H](c4cc5nnc(-c6ccccc6O)cc5n4C4CCC4)C3)no2)C(C)C)cc1 [Compound 88, (2S,4R)-1-((R)-2-(3-((R)-3-(5-cyclobutyl-3-(2-hydroxyphenyl)-5H-pyrrolo[3,2-c]pyridazin-6-yl)pyrrolidin-1-yl)isoxazol-5-yl)-3-methylbutanoyl)-4-hydroxy-N-((S)-1-(4-(4-methylthiazol-5-yl)phenyl)ethyl)pyrrolidine-2-carboxamide] | A (“A” indicates maximum degradation ≥75%)
> 10 nM | > 50% | > 10 nM | Cc1ncsc1-c1ccc(CNC(=O)[C@@H]2C[C@@H](O)CN2C(=O)[C@@H](c2cc(-c3cnc(N4CC[C@@H](c5cc6nnc(-c7ccccc7O)cc6n5C5CC5)C4)nc3)no2)C(C)C)cc1 [Compound 89, (2S,4R)-1-((R)-2-(3-(2-((R)-3-(5-cyclopropyl-3-(2-hydroxyphenyl)-5H-pyrrolo[3,2-c]pyridazin-6-yl)pyrrolidin-1-yl)pyrimidin-5-yl)isoxazol-5-yl)-3-methylbutanoyl)-4-hydroxy-N-(4-(4-methylthiazol-5-yl)benzyl)pyrrolidine-2-carboxamide] | A (“A” indicates maximum degradation ≥75%)
< 10 nM | < 50% |  | Cc1ncsc1-c1ccc(CNC(=O)[C@@H]2C[C@@H](O)CN2C(=O)[C@@H](c2cc(-c3cnc(N4CC[C@H](c5cc6nnc(-c7ccccc7O)cc6n5C5CC5)C4)nc3)no2)C(C)C)cc1 [Compound 90, (2S,4R)-1-((R)-2-(3-(2-((S)-3-(5-cyclopropyl-3-(2-hydroxyphenyl)-5H-pyrrolo[3,2-c]pyridazin-6-yl)pyrrolidin-1-yl)pyrimidin-5-yl)isoxazol-5-yl)-3-methylbutanoyl)-4-hydroxy-N-(4-(4-methylthiazol-5-yl)benzyl)pyrrolidine-2-carboxamide] | A (“A” indicates maximum degradation ≥75%)
